Measurements: US4028383A, “Indolopyrones having antiallergic activity” (Warner-Lambert Company, priority 1975, dated 1977)

Test system: PCA reaction
Test: passive cutaneous anaphylaxis (PCA) procedure
Type: in vivo, male rats
Details: for % Inhibition: rats, 30 minutes prior to challenge
Protocol: In this procedure, male rats, between 180 and 200 grams in weight are passively sensitized forty-eight or seventy-two hours prior to test with rat sera containing reagintype antibodies. These sera are injected intradermally in four separate sites, two on each side of the ventral midline. Dose volume is 0.1 ml.
On the test-day animals receive drug or vehicle (placebo) 30 minutes prior to challenge. Test compounds are given i.p. on an mg/kg basis; usual volume is 0.5 ml/100 g body weight. Controls receive the vehicle, on the same weight-volume basis.
The challenging dose of 1.0 ml of Antigen-Evans Blue is administered i.v. This is prepared from either Ovalbumin or dinitrophenylated bovine gamma globulin, 10 mg, together with 5 ml of 0.5% Evans Blue, U.S.P., and 5 ml of normal saline. At 30 minutes after challenge each rat is sacrificed. A section of skin that includes the four sensitizing injection sites is removed.
Reaction is indicated by a blue coloration of the site and scored on the basis of color intensity. Size of the site is also reported.
Data is reported as the arithmetic mean score of a specific site for that group of five animals; the size of the spot is also reported as the mean for the group.
The relation between dilution of antibody and mean spot diameters approximates a straight line which is constructed by the method of least squares for the control animals. The maximum antibody concentration is set as "100% reactivity", with the extrapolated "zero" antibody concentration being 0%. Using this line the diameter at the highest antibody concentrations in any treated group is expressed as a percent of the control, i.e. "% inhibition." The treatment is judged "active" if the inhibition is 50% or greater.

Cn1c2ccccc2c2oc(C(=O)O)cc(=O)c21 [Example 5, 4,5-dihydro-5-methyl-4-oxopyrano[3,2-b]indole-2-carboxylic acid]
% Inhibition (1.0 mg/kg I.P.): 30% | % Inhibition (5.0 mg/kg I.P.): 100% | % Inhibition (10.0 mg/kg I.P.): 100% | % Inhibition (25.0 mg/kg I.P.): 100% | antiallergic activity in passive cutaneous anaphylaxis (male rats, i.p. 30 minutes prior to challenge): highly effective as an antiallergic
